Like-named read-outs stand apart in the source and are kept apart here.
Columns and labels:
[1] = target: T1, 17β-HSD3 (Homo sapiens, UniProt P37058); assay: Inhibition of 17β-HSD3 in homogenated HEK-293 cells; format: biochemical
T1 construct: expressed in transfected cells; host or cells: HEK-293 (homogenate)
T1 sequence (P37058 1-310): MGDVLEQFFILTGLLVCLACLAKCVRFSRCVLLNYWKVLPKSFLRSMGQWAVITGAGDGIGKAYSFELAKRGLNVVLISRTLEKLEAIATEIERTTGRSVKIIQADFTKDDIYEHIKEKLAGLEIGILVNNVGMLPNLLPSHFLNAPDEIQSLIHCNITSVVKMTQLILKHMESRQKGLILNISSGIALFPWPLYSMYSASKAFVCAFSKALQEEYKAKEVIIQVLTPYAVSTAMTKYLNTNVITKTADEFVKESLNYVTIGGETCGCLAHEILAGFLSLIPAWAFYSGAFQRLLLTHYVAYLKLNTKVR

[2] = target: T1, 17β-HSD3; assay: Inhibition of 17β-HSD3 in intact HEK-293 cells; format: cell-based; settings: HEK293, 1 h
[3] = Table 2 (17β-HSD3), read-out: Homo (%) (0.1 μM)
[4] = Table 2 (17β-HSD3), 1 μM, read-out: Homo (%) (1 μM)
[5] = Table 2 (17β-HSD3), [14C]-Δ4-dione 50 nM into [14C]-T, read-out: Homo (%) (0.01 μM)
[6] = Table 2 (17β-HSD3), read-out: Intact cells (%) (0.1 μM)
[7] = Table 2 (17β-HSD3), read-out: Intact cells (%) (1 μM)
[8] = read-out: Homo (%) (0.1 μM), Table 2 (17β-HSD3)
[9] = read-out: Homo (%) (1 μM), Table 2 (17β-HSD3), 1 μM
[10] = read-out: Intact cells (%) (1 μM), Table 2 (17β-HSD3)

SMILES | inhibition at 0.01 µM ([1]; read-out: Homo (%) (0.01 μM), Table 4) | inhibition at 0.1 µM ([1]; read-out: Homo (%) (0.1 μM), Table 4) | inhibition at 1 µM ([1]; read-out: Homo (%) (1.0 μM), Table 4, 1.0 μM) | inhibition at 0.1 µM ([2]; read-out: Intact cells (%) (0.1 μM), Table 4) | inhibition at 0.1 µM [1, 3] [%] | inhibition at 1 µM [1, 4] [%] | inhibition at 0.01 µM [1, 5] [%] | inhibition at 0.1 µM [2, 6] [%] | inhibition at 1 µM [2, 7] [%] | inhibition at 0.1 µM [1, 8] [%] | inhibition at 1 µM [1, 9] [%] | inhibition at 1 µM [2, 10] [%]
C[C@]12CC[C@@]3(C[C@@H]1CC[C@@H]1[C@@H]2CC[C@]2(C)C(=O)CC[C@@H]12)CN(CCC(CN1CCOCC1)OC(=O)CCC1CCCC1)C(=O)O3 (some centres unmarked) [Compound 4, reference compound] | 2 | 79 | 94 | 49 | – | – | – | – | – | – | – | –
CN(Cc1ccccc1)C[C@@]1(O)CC[C@@]2(C)[C@@H](CC[C@@H]3[C@@H]2CC[C@]2(C)C(=O)CC[C@@H]32)C1 [Compound 7b, (3α,5α)-3-{[benzyl(methyl)amino]methyl}-3-hydroxyandrostan-17-one] | – | – | – | – | 79 | 89 | 28 | 48 | 92 | – | – | –
CCN(CC)C[C@@]1(O)CC[C@@]2(C)[C@@H](CC[C@@H]3[C@@H]2CC[C@]2(C)C(=O)CC[C@@H]32)C1 [Compound 7c, (3α,5α)-3-[(diethylamino)methyl]-3-hydroxyandrostan-17-one] | – | – | – | – | 10 | 60 | 0 | – | 14 | – | – | –
CCCCN(CCCC)C[C@@]1(O)CC[C@@]2(C)[C@@H](CC[C@@H]3[C@@H]2CC[C@]2(C)C(=O)CC[C@@H]32)C1 [Compound 7d, (3α,5α)-3-[(dibutylamino)methyl]-3-hydroxyandrostan-17-one] | – | – | – | – | 70 | 85 | 13 | 53 | 90 | – | – | –
C[C@]12CC[C@](O)(CN3CCCCC3)C[C@@H]1CC[C@@H]1[C@@H]2CC[C@]2(C)C(=O)CC[C@@H]12 [Compound 7e, (3α,5α)-3-hydroxy-3-(piperidin-1-ylmethyl)androstan-17-one] | – | – | – | – | – | – | 9 | – | – | 19 | 69 | 23
C[C@]12CC[C@](O)(CN3CCC(Cc4ccccc4)CC3)C[C@@H]1CC[C@@H]1[C@@H]2CC[C@]2(C)C(=O)CC[C@@H]12 [Compound 7f, (3α,5α)-3-[(4-benzylpiperidin-1-yl)methyl]-3-hydroxyandrostan-17-one] | – | – | – | – | – | – | 40 | – | – | 82 | 90 | 52
C[C@]12CC[C@](O)(CN3CCC(N4CCCCC4)CC3)C[C@@H]1CC[C@@H]1[C@@H]2CC[C@]2(C)C(=O)CC[C@@H]12 [Compound 7g, (3α,5α)-3-(1,4′-bipiperidin-1′-ylmethyl)-3-hydroxyandrostan-17-one] | – | – | – | – | 4 | 69 | 0 | – | 20 | – | – | –
CN1CCN(C[C@@]2(O)CC[C@@]3(C)[C@@H](CC[C@@H]4[C@@H]3CC[C@]3(C)C(=O)CC[C@@H]43)C2)CC1 [Compound 7h, (3α,5α)-3-hydroxy-3-[(4-methylpiperazin-1-yl)methyl]androstan-17-one] | – | – | – | – | 0 | 40 | 0 | 2 | – | – | – | –
C[C@]12CC[C@](O)(CN3CCN(c4ccccc4)CC3)C[C@@H]1CC[C@@H]1[C@@H]2CC[C@]2(C)C(=O)CC[C@@H]12 [Compound 7i, (3α,5α)-3-hydroxy-3-[(4-phenylpiperazin-1-yl)methyl]androstan-17-one] | – | – | – | – | – | – | 13 | – | – | 78 | 89 | 68

Source: US11072632B2, “Inhibitors of 17β-HSD1, 17β-HSD3 and 17β-HSD10” (UNIVERSITÉ LAVAL, priority 2011, dated 2021)
